87 molecules from a melting point compilation (Tetko et al.; mined from patent text by program, amines drawn as free bases though some values may be those of a salt) can be followed below.

`Cc1sc(C(=O)NCc2ccc3c(c2)OCO3)cc1[N+](=O)[O-]` returned a melting point of 181 to 183 °C.

As for `BrCC1(c2ccc3ccccc3c2)OCCO1`, the melting point came to 64 °C.

Molecule `COc1ccc(CCNC(=O)C(N)=O)cc1OC1CCCC1` returned a melting point of 175 to 176 °C.

Consider `Fc1ccc(Nc2nnc(Cc3ccncc3)c3ccccc23)cc1`, for which the melting point was in the range of 129 to 131 °C.

For the molecule `OC(Cn1cncn1)(c1ccc(Cl)cc1)C(Cl)(Cl)C(Cl)Cl` (configuration not stated), the melting point lay in the range of 168 to 169 °C.

As to `C=CCn1c(=O)[nH]c(=O)c2[nH]c(C34CC5CC(CC3C5)C4)nc21`, the melting point was over 270 °C.

For the molecule `Nc1c(Cl)cc(C(O)CNCCCCCCOCCCCCCc2ncccn2)cc1Cl` (configuration not stated), the melting point is 55 to 57 °C.

As for `Cc1cc(Nc2cnc(C(=O)N(C)CCO)c(Nc3ccc(Cl)cc3)n2)n[nH]1`, the melting point lay in the range of 191 to 192 °C.

Molecule `C=CCn1c(=O)c(C(=O)O)c(NC(=O)CCl)c2cccnc21` displayed a melting point of 145 to 148 °C.

With `COc1cc(COc2nc(-c3ccccc3)ncc2C=O)ccc1OCc1nc(-c2ccco2)oc1C`, the melting point is 143 to 144 °C.

As to `COc1ccc2c(c1)C(N1CCN(C)CC1)c1ccccc1CC2` (configuration not stated), the melting point lay in the range of 119 to 120 °C.

Take `C[C@H]1[C@H](Oc2cccc(C(F)(F)F)c2)CN1C(N)=O` (relative stereo): the melting point is 107 to 108 °C.

With `COc1ccc(C)cc1NC(=O)Nc1ccc(C2CCN(C(=O)Nc3ncccc3CO)CC2)cc1`, the melting point is 105 to 110 °C.

Molecule `CCCCCCNC(=O)OCCCCCCCCCCCCNC(=O)OC1CCN(C(=O)O)CC1` had a melting point of 98 to 100 °C.

The molecule `CC(CC(=O)Nc1c(Cl)ccc2nc(N3CCNCC3)ccc12)c1ccccc1` (configuration not stated) came in with a melting point of 194 to 196 °C.

Molecule `COC(=O)/C=C(\Oc1ccc(F)cc1)C(=O)OC` displayed a melting point of 60 to 61 °C.

The molecule `CCCCCN(C(=O)Nc1ccc2c(c1)C(C)(C)CCC2(C)C)c1ccc(C(=O)O)cc1` yielded a melting point of 201 to 202 °C.

`CN(C)CCOc1cccc2cc(C(=O)Nc3ccccc3N)oc12`: the melting point fell in the range of 108 to 118 °C.

Regarding `COC(=O)C(OCc1ccc(-c2ccc(Cl)cc2)cc1)(C(F)(F)F)C(F)(F)F`, the melting point lay in the range of 61.5 to 62.5 °C.

The molecule `Cc1ccc(S(=O)(=O)CC2COc3ccccc3O2)cc1` (single isomer, unassigned; (+)) displayed a melting point of 60 °C.

Turning to `CC(CCC(=O)C(C)(C)OO)C1CCC2C3CC=C4CC(OC5CCCCO5)CCC4(C)C3CCC12C` (configuration not stated), the melting point fell in the range of 130 to 131 °C.

Regarding `CN1Cc2c(C(=O)O)ncn2-c2ccccc2C1=O`, the melting point amounted to 287 °C.

Consider `c1cnn(Cc2ccc3c(c2)-c2[nH]nc(-c4ccsc4)c2C3)n1`, for which the melting point lay in the range of 217 to 219 °C.

In turn, `CCCCc1nc2c(N)nc3ccccc3c2n1CCOCc1ccccc1` yielded a melting point of 133 to 135 °C.

As for `NS(=O)(=O)OCC1COc2cc(Cl)c(Cl)cc2O1` (configuration not stated), the melting point lay in the range of 109 to 111 °C.

`Cc1c(C)c2c(c(C)c1NC(=O)c1ccc(C(=O)O)cc1)C(c1ccc(C(C)C)cc1)C(C)(C)O2` (configuration not stated) showed a melting point of 258 to 261 °C.

Turning to `Cc1cccc(C)c1N1C(=O)C(=O)N(C)C1=S`, the melting point lay in the range of 144 to 146 °C.

`CNC(=S)C1=CC(C)(C)Oc2ccc([N+](=O)[O-])cc21` gave a melting point of 147 to 148 °C.

Molecule `NC(=O)c1cccc(Cn2ccc(OCc3ccc(F)cc3F)c(Cl)c2=O)c1F` registered a melting point of 252 to 254 °C.

Consider `N#Cc1cc2nc(O)c(O)nc2c2[nH]nnc12`, for which the melting point is over 300 °C.

With `CCSc1cc(C)nc(SCC)c1NC(=O)CCCCCCCCSc1nc2ccccc2o1`, the melting point lay in the range of 84 to 87 °C.

As for `O=C(Nc1ccc2[nH]ncc2c1)N[C@@H](c1ccccc1)[C@@H]1CCCCN1`, the melting point was in the range of 147 to 149 °C.

In the case of `CCc1nnc(-c2ccc(-c3ccc(C(=O)N4CCCc5cc6c(cc54)C4(CCN(C)CC4)CO6)cc3)c(C)c2)o1`, the melting point lay within 241 to 243 °C.

In turn, `N#Cc1cnc2c(sc3ccccc32)c1Nc1ccc(Cl)cc1F` displayed a melting point of 250 to 251 °C.

In turn, `CC(=O)NC[C@H]1CN(c2ccc(C3CCN(C(=O)COCc4ccccc4)CC3)c(F)c2)C(=O)O1` displayed a melting point of 147 to 149 °C.

`CCOC(=O)N(c1ccccc1N)c1cccc(C)c1C`: the melting point was in the range of 95 to 97 °C.

As for `CNS(=O)(=O)c1cc(OC)c(OC)c(C(=O)NCC2CCCN2CC2CC2)c1` (configuration not stated), the melting point was 110 to 112 °C.

In the case of `CC(=O)Nc1ccc(N2CCN(Cc3ccccc3)CC2)cc1`, the melting point fell in the range of 159 to 161 °C.

`CC(C#N)c1c(Cl)cc([N+](=O)[O-])cc1Cl` (configuration not stated) had a melting point of 72 °C.

Turning to `CC(C)c1cc(C(C)C)c(CC(=O)NS(=O)(=O)Oc2c(C(C)C)cc(NS(C)(=O)=O)cc2C(C)C)c(C(C)C)c1`, the melting point is 164 to 166 °C.

As to `COc1cc(C(=O)Nc2ccc(N3CCOCC3)cc2C(C)=O)ccc1OCc1ccccc1`, the melting point was 192 to 194 °C.

`COC(=O)C1=C(C)NC(C)=C(C(=O)OCC2CCCO2)C1c1cccc(NC(C)=O)c1` (configuration not stated) showed a melting point of 158 to 160 °C.

Molecule `CSN(C=C(C#N)C#N)c1cccc(C(C)=O)c1` had a melting point of 165 to 166 °C.

Molecule `COC(=O)c1nc(Cl)nc(N)c1OC` showed a melting point of 158 °C.

The molecule `CC(C)c1cccc(C(C)C)c1OC(=O)CCC(=O)O` had a melting point of 101 to 102 °C.

With `CCOC(=O)N1CCN(C2=Nc3ccccc3Sc3ccc(Cl)cc32)CC1`, the melting point lay in the range of 96.5 to 97.5 °C.

For the molecule `Cc1cc(-c2cc(C(F)F)n3ncc(C(=O)O)c3n2)ccc1C(F)(F)F`, the melting point turned out to be 217 °C.

For the molecule `CSc1ccc(NC2=C(C#N)CSC2)c([N+](=O)[O-])c1`, the melting point is 141 to 142 °C.

`CC(C)CC1=NC=C2C=CC(=O)NC3=C2N1CC3`: the melting point is 211 to 212 °C.

For the molecule `CC(C)c1nc(-c2ccc(/C=C/C3(O)CN4CCC3CC4)cc2)no1` (configuration not stated), the melting point fell in the range of 142 to 144 °C.

`CCCCN(CCCC)C(=O)c1c(C)n(CCc2ccccc2)c2ccc(O)c(CN3CCCCC3)c12` showed a melting point of 105 to 107 °C.

`CC1(C)OC(=O)C2=C(CCCCCC2)O1` gave a melting point of 73.5 to 74.5 °C.

With `COc1ccc(Nc2nc(N3CCOCC3)nc(-n3c(C(F)F)nc4c(OC)cccc43)n2)nn1`, the melting point is 256 to 259 °C.

`CCOc1nn(CCOc2nn(CC)cc2CC(=O)O)cc1C(=O)NCc1ccc(Cl)cc1Cl`: the melting point lay within 157 to 158 °C.

Regarding `CC(=O)N1N=C(c2ccncc2)OC1c1c(Cl)cccc1Cl` (configuration not stated), the melting point came out at 163 °C.

`CN1CCN(c2cccc3ccc(C(O)(c4ccccc4)c4ccccc4)cc23)CC1`: the melting point worked out at 218 °C.

In the case of `CCOc1nccc(Cl)c1NC(=O)OC(C)(C)C`, the melting point fell in the range of 73 to 74 °C.

`CCCCCCCCc1ccc(OCC(=O)Cn2cccc2)cc1` gave a melting point of 58 to 59 °C.

In turn, `Cc1cc2c(cc1C)C(c1ccccc1)(C(F)(F)F)c1cc(C)c(C)cc1O2` had a melting point of 214 to 215 °C.

For the molecule `C=CCOC(=O)COc1cccc(NC(=O)NCC(=O)N(CC(=O)OC(C)(C)C)c2ccccc2C(=O)c2ccccc2)c1`, the melting point lay within 134 to 136 °C.

Turning to `O=c1[nH]c2ccccc2c2nc(-c3ccc(Cl)cc3)nn12`, the melting point was 315 to 318 °C.

Molecule `O=C(O)CCc1c(C(=O)O)[nH]c2cc(-c3ccccc3)ccc12` showed a melting point of 238 to 239 °C.

The molecule `CCCCCCCCCCCC(=O)NCCCCCC(=O)OO` showed a melting point of 70 to 75 °C.

Molecule `C[C@H](NC(=O)c1ccc[nH]1)C(=O)NC(C=O)CC(=O)O` (some centres not stated) came in with a melting point of 96 to 100 °C.

Molecule `COc1ccc(C(C)(C)CCC(=O)O)cc1NC(=O)C[C@H]1O[C@H](c2cccc(OC)c2OC)c2cc(Cl)ccc2N(CC(C)(C)CO)C1=O` registered a melting point of 173 to 174 °C.

For `CC(C)(C)NC(=O)[C@@H]1CNNC1=O`, the melting point was in the range of 175 to 178 °C.

For `CCN(CC)C(=O)c1cc(C)ccc1-c1ccc(OC)cc1`, the melting point fell in the range of 113 to 114 °C.

In the case of `Cc1nnc2n1-c1sc(C#Cc3ccccn3)cc1C(c1ccccc1Cl)=NC2`, the melting point was 153 to 155 °C.

`COC(=O)C(=O)c1nsc(NC(=O)OCc2ccccc2)n1` displayed a melting point of 144 to 147 °C.

`COC(=O)c1nc(C2CCCCC2)[nH]c1-c1ccc(C)cc1` showed a melting point of 210 to 213 °C.

In turn, `O=C(O)COc1ccc2c(-c3ccccc3)noc2c1Cl` displayed a melting point of 219 to 221 °C.

In turn, `COc1cc(C=C2C(=O)NC(=O)N2C)cc(OC)c1O` registered a melting point of 194 to 196 °C.

Molecule `CCCCCCCCCCc1cnc(-c2ccc3c(c2)C(=O)C(CCCCCC)C3)nc1` (configuration not stated) displayed a melting point of 87 °C.

`CCOC(=O)c1ncc2[nH]c3c(c2c1COC)C(=O)CCC3` showed a melting point of 249 to 250 °C.

Turning to `Cc1cccc(C)c1NC(=O)CN1CCN(CCCC(c2ccc(F)cc2)c2ccc(F)cc2)CCN1`, the melting point was 145 to 148 °C.

`COC(=O)c1cccc2c1nc(/C=C/c1ccc(OC)c(OC)c1)n2C` yielded a melting point of 187 to 189 °C.

As for `O=C(N[C@H]1CCN(Cc2ccccc2)C[C@H]1O)c1ccccc1O` (relative stereo), the melting point was 127 °C.

`COc1ccc(Cn2c(=S)[nH]c(=O)c3[nH]c(C(C)C)nc32)cc1OCc1ccccc1` showed a melting point of 280 to 281 °C.

Take `CC(C)(C)c1ccc(C(=O)Nc2cn3nc(NCc4cccnc4)ccc3n2)cc1`: the melting point fell in the range of 232 to 233 °C.

Consider `c1ccc(CC[C@H]2CN(C3=Nc4ccccc4Sc4ccccc43)CCN2)cc1`, for which the melting point lay in the range of 48 to 59 °C.

With `CCC(=O)Nc1ccc(C(=O)C(C)Br)cc1` (configuration not stated), the melting point lay in the range of 126 to 127 °C.

For the molecule `CC(C)(C)OC(=O)NCCCn1c(CCCOc2ccccc2)nc2c(N)nc3ccccc3c21`, the melting point fell in the range of 151 to 153 °C.

`Cc1cc2c(c(NC(C(N)=O)c3c(Cl)cccc3Cl)c1)C(=O)CC2` (configuration not stated) displayed a melting point of 250 °C.

Regarding `COc1ccc(-c2nc(S(=O)c3ccccc3)n(C)c2-c2ccc(OC)cc2)cc1` (configuration not stated), the melting point lay within 114 to 115 °C.

With `COC(=O)c1nc2c(c(-c3cccs3)nn2-c2ccccc2)c(N)c1C(=O)OC`, the melting point was 178 to 180 °C.

For `CCC(=O)Nc1ccc(N)c(=O)cc1`, the melting point lay within 203 to 205 °C.

As for `O=[N+]([O-])c1ccc2[nH]cc(CCCO)c2c1`, the melting point was 107 to 110 °C.
